Measured values: patent US20100291543A1, “HOMOGENEOUS IN VITRO FEC ASSAYS AND COMPONENTS” (priority 2007, published 2010)
Positions count from the first letter of the chain named. Names and notes keep the numbering of the source. Values joined by “and” are separate entries in the source; they are usually repeats but may differ in a detail not shown here. Equal entries are not always repeated. Where two headings read alike, the source gives them in different places.

Experiments:
[1] = target: α and ω fragments of TEM-1 beta-lactamase (Escherichia coli, UniProt P62593, A182V/V82I); assay type: biochemical, E. coli
Experimental: Nitrocefin (Merck, Australia) is a colorimetric substrate of TEM-1 beta-lactamase that changes colour from yellow to red (OD492) following hydrolysis of the β-lactam ring. […] Assays were performed using a 96-well flat bottom cell-culture plate (TPP, Australia). Nitrocefin stock solutions of 200 or 600 μM were prepared in 50 mM NaH2PO4; 150 mM NaCl; 5% DMSO (Sigma, Australia) pH 7. For each 200 μl reaction, 100 μl of the nitrocefin stock was added to 100 μl of enzyme fragments (with or without Ni^2+) in 50 mM NaH2PO4 150 mM NaCl pH 7. Depending on the final signal required, the concentration of enzyme fragments used per well ranged from 40 nM to 200 nM and the final concentration of the Ni^2+ analyte from 100 μM or 200 μM. Assay components were mixed well by pipetting, incubated for 5 minutes at room temperature. Kinetics of the nitrocefin hydrolysis were read at 492 nm using a SpectraMax190 (Molecular Devices, USA).
In an attempt to improve the signal to noise ratio of forced α and ω fragments complementation, the effect of different buffer additives such as solvents, BSA, detergents, protein denaturants and salts were investigated. […] Assays were performed as described herein.
As a low concentration of solvent could partially denature the enzyme fragments, it was investigated whether a small amount of ethanol, isopropanol, methanol, DMSO and acetonitrile would reduce natural fragment complementation and increase the signal to noise ratio. The final concentrations of each solvent tested were 15%, 7.5%, 3.75%, 1.875%, […] and 0%. Kinetics of the complementation assays was read at 492 nm for 30 minutes. The signal/noise ratio was then calculated according to the maximum rate (mOD/min) from SoftmaxPro. […]
Detergent is widely used to reduce protein-protein interaction or ELISA background; using small amount might help preventing the natural fragment complementation by keeping two fragments apart then increased the signal/noise ratio. […] Reading data collecting time was 30 minutes. The signal/noise ratio was then calculated according to the maximum rate (mOD/min) from SoftmaxPro.
To test the effect of protein denaturants on enzyme fragment complementation, nitrocefin activity assays were performed using a matrix of fragment, substrate and NiSO4 concentrations in the presence of urea or guanidine hydrochloride. In preliminary assays, the complementation of 40 nM fragments was tested in concentrations of urea ranging from 2 M to 62.5 mM and in concentrations of GuHCl that ranged from 1M to 31.25 mM. The assay was prepared as follows: 40 nM of each fragment was added to a two-fold dilution series of urea [from 2 M urea 50 mM NaH2PO4 150 mM NaCl pH7 to 62.5 mM urea 50 mM NaH2PO4 150 mM NaCl pH7] or guanidine hydrochloride [from 1 M GuHCl 50 mM NaH2PO4 150 mM NaCl pH7 to 31.25 mM GuHCl 50 mM NaH2PO4 150 mM NaCl pH7] in duplicate. To the first set of wells, NiSO4 was added to a final concentration of 100 μM, whereas the second set contained no NiSO4. The plate was incubated for 5 minutes and the kinetics read at 492 nm using a SpectroMax reader.

human IgG (human) = test: surface plasmon resonance, same conditions as BLω-ProG
[2] = FPLC gel filtration (aggregation) of purified fragments; assay type: physicochemical; conditions: Purification Strategy: Denaturing CRF Ni-NTA
Excerpt: In some cases, following affinity purification of the enzyme fragments, pooled eluates were subjected to size exclusion chromatography using a Superdex200GL column (Amersham cat. 17-5175-01) under the control of a DuoFlow chromatography system (BioRad cat. 760-0037). Gel filtration was used for either polishing of purified enzyme fragments (removal of contaminating proteins) or to determine the proportion of monomeric versus aggregated enzyme fragments after on-column refolding. The protocol was as follows: equilibration with 2 CV of 50 mM NaH2PO4 150 mM NaCl, pH7 at 0.6 ml/min; injection of 250-500 μl of sample at 0.6 ml/min; and isocratic flow of 1 CV of 50 mM NaH2PO4 150 mM NaCl, pH 7 at 0.6 ml/min. See FIG. 7 for exemplary results.

[3] = assay type: physicochemical
Experimental: The pellet from a 250 ml overnight induction was lysed in 25 ml of [6 M GuHCl-100 mM NaH2PO4 10 mM Tris pH 8] followed by a 1-hour incubation at 4° C. with shaking at 100 rpm. To enhance lysis, the suspension was sonicated in an ice bath for 5 cycles of 30 seconds on/30 seconds off using a Branson 250 sonifier. After sonication, the lysate was centrifuged at 12,000×g for 30 min (4° C.) and then passed through a 0.2 μm filter to remove cellular debris.
Recombinant His-tagged proteins were purified using a 1 ml HisTrap HP column (Amersham cat. 17-5247-01) under the control of a DuoFlow chromatography system (BioRad cat. 760-0037). The HisTrap column was equilibrated with 10 column volumes (CV) of 8 M urea 100 mM NaH2PO4 10 mM Tris pH 7.5 at a flow rate of 1 ml/min. Cleared E. coli lysates were then loaded onto the column using a Model EP-1 Econopump (BioRad cat. 731-8142) at 0.5 ml/min. The column was washed with 10 CV of 8 M Urea 100 mM NaH2PO4 10 mM Tris pH 6.3. Bound protein was refolded over a 60 CV gradient from 8 M Urea 100 mM NaH2PO4 10 mM Tris 200 mM L-arginine 100 μM GSSG pH 7.5 to 100 mM NaH2PO4 10 mM Tris 200 mM L-arginine 100 μM GSSG pH 7.5 at 1 ml/min. Histidine-tagged proteins were eluted with 10 CV of 250 mM imidazole 50 mM NaH2PO4 150 mM NaCl pH 8, and analysed by PAGE, western blotting, gel filtration and mass spectroscopy.

human IgG = test: Surface plasmon resonance binding kinetics for human IgG; conditions: SPR
Excerpt: To confirm that the Protein G moiety of BLω-ProG was functional and suitable for testing in our HA format we assessed its binding kinetics for human IgG using surface plasmon resonance. […] A commercially available recombinant protein G, truncated to eliminate binding to human serum albumin, was included as a positive control.

[4] = test system: rabbit hyper-immune serum (anti-HSV-1 peptide); assay type: biochemical; conditions: with BLα-HSV1 (5 nM), hyper-immune serum 1:100
[5] = Purification Strategy: Denaturing CRF Ni-NTA

C[S+](C)[O-] [DMSO]
concentration at which optimal signal to noise ratio was achieved [1]: 15%

NC(N)=O [urea]
concentration at which optimal signal to noise ratio was achieved ([1]; denaturant): 0.5 M

CC#N [acetonitrile]
concentration at which optimal signal to noise ratio was achieved ([1]; solvents and detergents): 3.75%

Triton-X100
concentration at which optimal signal to noise ratio was achieved [1]: 0.3%

CCO [ethanol]
concentration at which optimal signal to noise ratio was achieved [1]: 3.75%
signal/noise ratio [1]: 7.1 and 8.4 and 8.5 and 5.4

c1c[nH]cn1 [imidazole]
concentration at which optimal signal to noise ratio was achieved ([1]; imidazole): 12.5 mM
signal/noise ratio ([1]; imidazole final concentration 6.25 mM): 5.2
signal/noise ratio ([1]; imidazole final concentration 12.5 mM): 5.3
signal/noise ratio ([1]; imidazole final concentration 25 mM): 3.7
signal/noise ratio ([1]; imidazole final concentration 50 mM): 2.1
signal/noise ratio ([1]; imidazole final concentration 100 mM): 0.8

CC(C)O [isoproponal, isopropanol]
concentration at which optimal signal to noise ratio was achieved ([1]; solvents and detergents): 3.75%

commercially available recombinant protein G, truncated to eliminate binding to human serum albumin
Kd (human IgG (human)): 483 nM

CO [methanol]
concentration at which optimal signal to noise ratio was achieved ([1]; solvents and detergents): 7.5%

Tween-20
concentration at which optimal signal to noise ratio was achieved ([1]; solvents and detergents): 0.15%

B1: PB11.2: alpha fragment construct containing substitutions V74T and M182T, SEQ ID NO: 6 (protein)
chain: MHPETLVKVKDAEDQLGARVGYIELDLNSGKILESFRPEERFPMMSTFKTLLCGAVLSRIDAGQEQLGRRIHYSQNDLVEYSPVTEKHLTDGMTVRELCSAAITMSDNTAANLLLTTIGGPKELTAFLHNMGDHVTRLDRWEPELNEAIPNDERDTTTPVAMATTLRKLLTGGGGGSHHHHHH
modifications: PB11.2 construct
FPLC (aggregation) [2]: <+

B2: PB15: rearranged full-length (FL) construct of Beta-lactamase, SEQ ID NO: 21 (protein)
chain: MHMHHHHHHEERFPMMSTFKVLLCGAVLSRIDAGQEQLGRRIHYSQNDLVEYSPVTEKHLTDGMTVRELCSAAITMSDNTAANLLLTTIGGPKELTAFLHNMGDHVTRLDRWEPELNEAIPNDERDTTMPVAMATTLRKLLTGELLTLASRQQLIDWMEADKVAGPLLRSALPAGWFIADKSGAGERGSRGIIAALGPDGKPSRIVVIYTTGSQATMDERNRQIAEIGASLIKHWGSGSGHPETLVKVKDAEDQLGARVGYIELDLNSGKILESFRH
modifications: PB15
Purification (solubility) [3, 5]: >+++
Purification (solubility) ([3]; Purification Strategy: Native Ni-NTA): <+

B3: PB15.3: rearranged construct of Beta-lactamase with substitutions M182T, I208T and F230Y, SEQ ID NO: 22 (protein)
chain: B2 chain with M129T, I155T, F177Y
modifications: PB15.3 (M182T, I208T, F230Y)
Purification (solubility) [3, 5]: >+++

B4: BLω-ProG: omega fragment fused via (G4S)3 linker to C2 domain of protein G, SEQ ID NO: 83 (protein)
chain: MHHHHHHGGGGSGSTYKLVINGKTLKGETTTEAVDAATAEKVFKQYANDNGVDGEWTYDDATKTFTVTETSGGGGSGGGGSGGGGSASELLTLASRQQLIDWMEADKVAGPLLRSALPAGWFIADKSGAGERGSRGIIAALGPDGKPSRIVVIYTTGSQATMDERDRQIAEIGASLIKHW
modifications: Protein G subunit omega reporter fragment displaying sequence of BLaProGconstruct
rate of association (human IgG): slower rate of association than the C2 domain
rate of dissociation (human IgG): slower rate of dissociation
Kd (human IgG; read-out: dissociation constant (KD)): 81 nM
level of activity [4]: highest level of activity
